Data published in patent publication US20180153870A1, “BIPERIDEN FOR TREATING CANCER” (Universitätsklinikum Hamburg-Eppendorf, priority 2015, published 2018).

How the values were obtained:
Panc-2 = assay: MTT proliferation assay, Panc-2; type: cell-based, human
Description: (§1) The cell lines used for the proliferation assays were cultured in different media. The cell lines Pan-1, Panc-2 and BxPC3, which have been derived from the human ductal pancreatic adenocarcinoma (PDAC), were cultured in Dulbecco's modified Eagle medium (DMEM) (Sigma), that was supplemented with 1% penicillin/streptomycin (Life technologies/GIBCO 15140-122) and 10% fetal bovine serum (Life technologies/GIBCO 100500-064). The cell line L3.6pl was cultured in RPMI 1640 medium (Life technologies/GIBCO 72400-21) that was supplemented with 1% penicillin/streptomycin and 10% fetal bovine serum. A sub-clone of the cell line L3.6pl, that was designated L3.6pl res, was resistant to gemcitabine and was also cultured in RPMI 1640 medium (Life technologies/GIBCO 72400-21) that was supplemented with 1% penicillin/streptomycin, 10% fetal bovine serum and 2 μM gemcitabine (GEMZAR, Lily). The human immortalized, non-malignant cell line of the ductal pancreatic epithelium (HPDE) was cultured in keratinocyte-SFM (Life technologies/GIBCO) that was supplemented with 10% fetal bovine serum, 1% penicillin/streptomycin and 1% epidermal growth factor (EGF).
(§2) The proliferation rates of the cell lines were determined after stimulation with (i) biperiden, (ii) mepazine, and (iii) stimulation with both active ingredients. For this purpose, cells were seeded in plates with 96 wells at 5000 cells per well and incubated overnight at 37° C. and 5% CO2. Next morning, the blanket values were measured at 490 nm in an ELISA reader (FLUOstar Omega, BMG LABTECH) after the addition of 100 μL medium and 20 μL MTT substrate (CellTiter 96 AQueous One Solution Cell Proliferation Assay, Promega). Biperiden was added in increasing concentrations (3.71 μg/ml, 11.1 μg/ml und 29.6 μg/ml) in the form of solutions of biperiden hydrochloride (B5311 SIGMA-Aldrich, USA) and DMSO. […] The ex-tinction was measured every 24 hours during a period of 72 hours.
(§3) The normal distribution of the results was analyzed by Kolgomorov-Smirnov test and Shapiro-Wilk test. Non-parametric variables were analyzed using the Mann-Whitney-U test. […]

[1] = tested on: lung carcinoma cell lines A549 und H1299; assay: MTT proliferation assay, lung carcinoma cell lines; type: cell-based, human; details: concentrations as in Example 1
Description: (§4) The proliferation rates of the cell lines were determined after stimulation with (i) biperiden, (ii) mepazine, and (iii) stimulation with both active ingredients. For this purpose, cells were seeded in plates with 96 wells at 5000 cells per well and incubated overnight at 37° C. and 5% CO2. Next morning, the blanket values were measured at 490 nm in an ELISA reader (FLUOstar Omega, BMG LABTECH) after the addition of 100 μL medium and 20 μL MTT substrate (CellTiter 96 AQueous One Solution Cell Proliferation Assay, Promega). Biperiden was added in increasing concentrations (3.71 μg/ml, 11.1 μg/ml und 29.6 μg/ml) in the form of solutions of biperiden hydrochloride (B5311 SIGMA-Aldrich, USA) and DMSO. Mepazine was added in increasing concentrations (15 μM and 25 μM) in the form of solutions of mepazine hydrochloride (MALT1 Inhibitor II, Calbiochem Merck, Millipore Billerica, USA). Combinations of both mepazine and biperiden were added in the following concentrations: 15 μM mepazine+3.71 μg/ml biperiden; 25 μM mepazine+3.71 μg/ml biperiden. The ex-tinction was measured every 24 hours during a period of 72 hours. […]

HPDE = assay: MTT proliferation assay, HPDE reference cell line; type: cell-based, human; details: for reaction of proliferation: mepazine, other doses of biperiden or a combination of mepazine and biperiden
Description: as §1, §2, §3

[2] = tested on: esophageal carcinoma cell lines OE19, OE33 und KYSE 140; assay: MTT proliferation assay, esophageal carcinoma cell lines; type: cell-based, human; details: OE19, OE33, KYSE 140; concentrations as in Example 1
Description: as §4

[3] = tested on: pancreatic cancer cell lines; assay: MTT proliferation assay, all pancreatic cancer cell lines; type: cell-based, human; details: in the presence of biperiden, mepazine or a combination
Description: The cell lines used for the proliferation assays were cultured in different media. The cell lines Pan-1, Panc-2 and BxPC3, which have been derived from the human ductal pancreatic adenocarcinoma (PDAC), were cultured in Dulbecco's modified Eagle medium (DMEM) (Sigma), that was supplemented with 1% penicillin/streptomycin (Life technologies/GIBCO 15140-122) and 10% fetal bovine serum (Life technologies/GIBCO 100500-064). The cell line L3.6pl was cultured in RPMI 1640 medium (Life technologies/GIBCO 72400-21) that was supplemented with 1% penicillin/streptomycin and 10% fetal bovine serum. […]
The proliferation rates of the cell lines were determined after stimulation with (i) biperiden, (ii) mepazine, and (iii) stimulation with both active ingredients. […] Next morning, the blanket values were measured at 490 nm in an ELISA reader (FLUOstar Omega, BMG LABTECH) after the addition of 100 μL medium and 20 μL MTT substrate (CellTiter 96 AQueous One Solution Cell Proliferation Assay, Promega). […] The ex-tinction was measured every 24 hours during a period of 72 hours.
as §3

human Panc-1 tumor cells = assay: Mouse xenograft model with subcutaneous Panc-1 tumor cells; type: in vivo, pfp−/−/rag2−/− double knockout mice; details: for size of the subcutaneous tumor: daily i.p. treatment, 16 mg/kg mepazine; for size of the subcutaneous tumor / tumor sizes compared to the control groups: 10 mg/kg biperiden; for tumor sizes compared to the control groups: daily i.p., 16 mg/kg mepazine or both
Text: For the mouse xenograft model pfp−/−/rag2−/− double knockout mice were used. […] Owing to the inactivated rag2 gene, the mouse lacks mature T or B lymphocytes. The mouse model was developed by the Taconic Institute (Quality Laboratory Animals and Services for Research, DK8680 Ry, Taconic Europe, Denmark) by crossing the PFPN12 mouse model with the RAGN12 mouse model. This model was back crossed over 12 generations (N12) with C57BL/6NTac, and the colony was maintained by homozygous pairing. The mouse model was used in the course of the present invention with PDAC cells of the cell line Panc-1, which were administered subcutaneously. 12 days after subcutaneous injection of 10^6 human Panc-1 tumor cells, the mice were treated daily either with 16 mg/kg mepazine i.p. (n=10), 10 mg/kg biperiden (n=10) i.p. or with a combination of both active ingredients, that is with 16 mg/kg mepazine and 10 mg/kg biperiden (n=10) i.p. The control group (n=10) was not treated. The daily treatment was performed under identical, standardized conditions. The same 3-days-cycle was used over the complete period of the study: day one comprised the injection of the medication and the determination of the bodyweight by weighing. Day 2 comprised the injection of the medication and the determination of the subcutaneous tumor growth with a caliper. Day 3 comprised the injection of the medication and neuroscoring. […] After euthanizing, the subcutaneous tumors were removed from the mice. Prior to the surgery, the body of the mouse was disinfected with ethanol. The skin above the tumor was carefully incised, and the tumor was surgically removed from the adjacent tissue. After removal, the tumor was weighed and measured. For evaluation only mice were used which had developed a tumor. […] The volumes of the subcutaneous tumors were measured with a caliper after removal and calculated using the formula length× width^2 as described in [8]. […] The average tumor size in the control group was 729.33 mm^3±186.25 mm^3 compared to 130.43 mm^3±63.96 mm^3 in the group that was treated with mepazine (p=0.002; one-sided Fisher's exact test).

| Structure (SMILES) | reduction of proliferation rate (Panc-2; 29.6 μg/ml biperiden, trend, p=0.077) | proliferation of lung carcinoma cell lines [1] | proliferation (HPDE; 11.1 μg/ml biperiden) | reaction of proliferation (HPDE) | proliferation of esophageal carcinoma cell lines [2] | reduction in the proliferation rate [3] | size of the subcutaneous tumor (human Panc-1 tumor cells; Panc-1 xenograft) | tumor sizes compared to the control groups (human Panc-1 tumor cells; Panc-1 xenograft) | compatibility of administration (human Panc-1 tumor cells; mice, 10 mg/kg biperiden i.p. daily) | motor activity compared to mice that received mepazine or no medication (human Panc-1 tumor cells; mice, 10 mg/kg biperiden i.p. or 16 mg/kg mepazine and 10 mg/kg biperiden i.p., daily) | reduction of proliferation rate (Panc-2; 15 μM mepazine, p=0.008) | reduction of proliferation rate (Panc-2; 25 μM mepazine, p=0.001) | average tumor size (human Panc-1 tumor cells; Panc-1 xenograft, 16 mg/kg mepazine i.p. daily, ±63.96 mm^3, control 729.33 mm^3±186.25 mm^3, p=0.002) |
| --- | --- | --- | --- | --- | --- | --- | --- | --- | --- | --- | --- | --- | --- |
| OC(CCN1CCCCC1)(c1ccccc1)C1CC2C=CC1C2 (stereo not shown) [biperiden] | 98.2% | inhibited proliferation | reduced slightly | no statistically significant reaction | inhibited proliferation of esophageal carcinoma cell lines significantly | massive reduction | significantly reduced | visibly smaller | good compatibility | motorically more active |  |  |  |
| CN1CCCC(CN2c3ccccc3Sc3ccccc32)C1 (stereo not shown) [mepazine] |  | inhibited proliferation |  | no statistically significant reaction | inhibited proliferation of esophageal carcinoma cell lines significantly | massive reduction | significantly reduced | visibly smaller |  |  | 56.1% | 86.9% | 130.43 mm^3 |
